Where two headings read alike, the source gives them in different places.
Biological target: recombinant human SPR (Sepiapterin Reductase) (Homo sapiens (Human), UniProt P35270)
Experiment: SPR inhibition biochemical assay with chromogenic (OD at 420 nm) and LC/MS (L-biopterin formation) read-out
Protocol: The compounds described herein were screened for activity as inhibitors of Sepiapterin Reductase (SPR).
Bacteria were grown at 37° C., and expression of SPR protein was induced for 4 hours.
To screen for SPR inhibition, a biochemical assay based on LC/MS (and chromogenic) read-out has been developed. The LC/MS assay monitors the product formation (L-biopterin) and the chromogenic assay measures OD at 420 nm.
N-methoxyacetyl serotonin was used as a reference compound (positive control).
The exemplary assay protocol uses the following conditions: SPR (6 nM); L-Sepiapterin (50 μM); NADPH (100 μM); Na-Phosphate buffer, pH 6.5 (100 mM); 82 μL assay volume; 60 minutes incubation with compounds (0.5% final concentration in DMSO) at 37° C. in Greiner μClear® 384 well plates.
For example, the compounds of Table 1 were screened using this additional method in triplicate.

[1] = LC/MS read-out, L-biopterin product formation, SPR 6 nM, L-Sepiapterin 50 μM, NADPH 100 μM, pH 6.5, 60 minutes at 37° C., read-out: IC50 LC/MS
[2] = chromogenic read-out, OD at 420 nm, SPR 6 nM, L-Sepiapterin 50 μM, NADPH 100 μM, pH 6.5, 60 minutes at 37° C., read-out: IC50 chromogenic

Chain of recombinant human SPR (Sepiapterin Reductase) (P35270 whole entry): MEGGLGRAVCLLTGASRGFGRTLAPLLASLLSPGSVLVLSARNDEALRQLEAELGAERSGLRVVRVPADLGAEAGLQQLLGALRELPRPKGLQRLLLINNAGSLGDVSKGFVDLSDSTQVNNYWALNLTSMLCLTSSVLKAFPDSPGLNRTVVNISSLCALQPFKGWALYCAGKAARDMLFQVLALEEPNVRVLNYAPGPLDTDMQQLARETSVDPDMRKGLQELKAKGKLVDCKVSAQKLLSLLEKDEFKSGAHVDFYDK

Row | SMILES | IC50 [1] [nM] | IC50 [2] [nM] | IC50 (reference compound (positive control), read-out not specified, read-out: IC50 measured using the screening conditions) [nM]
1 | CC(C)C(=O)NCCc1c[nH]c2ccc(O)cc12 [(1)] | 330 | 400 | –
2 | O=C(NCCc1c[nH]c2ccc(O)cc12)C1CC1 [(2)] | 340 | 360 | –
3 | CCOCC(=O)NCCc1c[nH]c2ccc(O)cc12 [(3)] | 2200 | 2800 | –
4 | Oc1ccc2[nH]cc(CCNc3cccnc3)c2c1 [(12)] | 1600 | 2100 | –
5 | COCC(=O)NCCc1c[nH]c2ccc(F)cc12 [(16)] | 2800 | 3400 | –

Other lines, results leading:

Row | IC50 [1] [nM] | IC50 [2] [nM] | IC50 (reference compound (positive control), read-out not specified, read-out: IC50 measured using the screening conditions) [nM] | SMILES
6 | 3200 | 4500 | – | COCC(=O)NCCc1c[nH]c2ccc(S(C)(=O)=O)cc12 [(17)]
7 | 86 | 84 | – | COCC(=O)NCCc1cn(C)c2ccc(O)cc12 [(21)]
8 | 310 | 310 | – | COCC(=O)NCC(=O)c1c[nH]c2ccc(O)cc12 [(24)]
9 | 69 | 64 | – | COCC(=O)NCCc1cccc(O)c1 [(32)]
10 | 43 | 42 | 20 to 40 | COCC(=O)NCCc1c[nH]c2ccc(O)cc12 [N-Methoxyacetyl-Serotonin, reference compound]
